The source of these data is PubChem BioAssay (NCI).

The structures appear in SMILES notation. Several values for one entry are separate records, joined by “and”; a condition that tells them apart may be missing. Identical values can stand only once.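 Method: 48-hour compound exposure of cells in 96-well plates, five concentrations, linear interpolation of endpoints. GI50 is the concentration that inhibits growth by half. TGI: concentration producing complete growth inhibition.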

Among the test systems are A549 NSCLC; ACHN renal; EKVX NSCLC; K-562 leukemia; LOX IMVI melanoma; MOLT-4 leukemia; NCI-H522 lung; SF-268 CNS; SK-MEL-2 melanoma; SW-620 colon.
Holding throughout (experiment): NCI tumour cell line growth inhibition, 48 h

Take `Nc1ncnc2occ(-c3ccc(NC(=O)Nc4cc(C(F)(F)F)ccc4F)cc3)c12`: the GI50 in the assay with A549 NSCLC is 6.44 µM and 3.16 µM; in the assay on ACHN renal, 4.17 µM and 2.9 µM; with EKVX NSCLC, 5.12 µM and 3.97 µM; in the assay with K-562 leukemia, 2.18 µM and 0.972 µM; with LOX IMVI melanoma it was 4.83 µM and 2.69 µM; with MOLT-4 leukemia, 7.47 µM and 3.7 µM. Further, the GI50 is 5.48 µM and 1.91 µM with NCI-H522 lung; 4.68 µM and 2.34 µM in the assay on SF-268 CNS; 6.25 µM and 3.36 µM with SK-MEL-2 melanoma; 7.71 µM and 4.14 µM in the assay with SW-620 colon. For the same compound, the TGI was 18.8 µM and 11.5 µM in the assay on A549 NSCLC; 18.8 µM and 16.4 µM with ACHN renal; 16.6 µM and 13.2 µM in the assay on EKVX NSCLC; 19 µM and > 25 µM in the assay with K-562 leukemia; 14.9 µM and 10.2 µM in the assay with LOX IMVI melanoma; 23.6 µM and 14.4 µM in the assay on MOLT-4 leukemia. For the same compound, the TGI was 11.2 µM and 5.81 µM in the assay on NCI-H522 lung; 12.5 µM and 8.02 µM in the assay with SF-268 CNS; 12.3 µM and 8.36 µM in the assay with SK-MEL-2 melanoma; 23.7 µM and 12.1 µM in the assay on SW-620 colon.
With `CC(=O)NS(=O)(=O)c1ccc(-n2nc(-c3ccccc3)cc2-c2cc(O)ccc2O)cc1`, the GI50 with A549 NSCLC, in the assay with ACHN renal, in the assay with EKVX NSCLC, in the assay with K-562 leukemia, in the assay with LOX IMVI melanoma and in the assay with MOLT-4 leukemia was greater than 100 µM in each case. Besides, the GI50 is 45 µM in the assay with NCI-H522 lung, greater than 100 µM with SF-268 CNS, greater than 100 µM in the assay with SK-MEL-2 melanoma and greater than 100 µM with SW-620 colon. Moreover, the TGI in the assay on A549 NSCLC, with ACHN renal, in the assay with EKVX NSCLC, in the assay on K-562 leukemia, in the assay with LOX IMVI melanoma and in the assay on MOLT-4 leukemia was greater than 100 µM in each case. For the same compound, the TGI with NCI-H522 lung, in the assay with SF-268 CNS, in the assay on SK-MEL-2 melanoma and in the assay with SW-620 colon was greater than 100 µM in each case.
Consider `CSc1nc(SC)c2cnn(-c3ccnc4cc(Cl)ccc34)c2n1`, for which the GI50 in the assay with A549 NSCLC was greater than 85.7 µM; with ACHN renal it was 42 µM; with EKVX NSCLC, 25.9 µM; in the assay with K-562 leukemia, greater than 61 µM; in the assay with LOX IMVI melanoma, greater than 59 µM; with MOLT-4 leukemia, 42.5 µM. In addition, the GI50 was 55.1 µM in the assay on NCI-H522 lung, 19.7 µM in the assay on SF-268 CNS, greater than 44.9 µM with SK-MEL-2 melanoma and greater than 59.1 µM in the assay on SW-620 colon. The TGI in the assay on A549 NSCLC is greater than 100 µM; in the assay with ACHN renal, greater than 86.8 µM; in the assay on EKVX NSCLC, 70.5 µM; in the assay on K-562 leukemia, greater than 100 µM; in the assay with LOX IMVI melanoma, greater than 100 µM; in the assay with MOLT-4 leukemia it was greater than 89.6 µM. For the same compound, the TGI in the assay on NCI-H522 lung was greater than 100 µM; with SF-268 CNS it was 58.1 µM; with SK-MEL-2 melanoma, greater than 72.8 µM; in the assay on SW-620 colon, greater than 100 µM.
Regarding `COc1cc2cc(Oc3ccc(NC(=O)Nc4ccc(F)c(C(F)(F)F)c4)cc3)c(C)nc2cc1OCCN1CCOCC1`, the GI50 is 2.57 µM in the assay with A549 NSCLC; 2.3 µM in the assay on ACHN renal; 2.53 µM in the assay on EKVX NSCLC; 0.88 µM in the assay on K-562 leukemia; 1.44 µM in the assay with LOX IMVI melanoma; 1.86 µM with MOLT-4 leukemia. The GI50 with NCI-H522 lung is 2.04 µM; in the assay with SF-268 CNS it was 3.66 µM; in the assay on SK-MEL-2 melanoma, 2.38 µM; with SW-620 colon, 3.34 µM. Further, the TGI in the assay with A549 NSCLC was determined as 34.3 µM; with ACHN renal, 11.4 µM; in the assay with EKVX NSCLC, 20.7 µM; with K-562 leukemia, 10.3 µM; with LOX IMVI melanoma, 2.86 µM; in the assay with MOLT-4 leukemia, 11.4 µM. Further, the TGI with NCI-H522 lung is 9.43 µM; in the assay on SF-268 CNS it was 19.8 µM; with SK-MEL-2 melanoma it was 7.58 µM; in the assay with SW-620 colon, 9.86 µM.
As for `Cc1cc(C)c2c(=O)cc(-c3ccc(F)cc3)[nH]c2n1`, the TGI in the assay with A549 NSCLC, with ACHN renal, with EKVX NSCLC, with K-562 leukemia, in the assay on LOX IMVI melanoma and in the assay with MOLT-4 leukemia was greater than 100 µM throughout. In addition, the TGI in the assay with NCI-H522 lung, with SF-268 CNS, with SK-MEL-2 melanoma and in the assay on SW-620 colon was greater than 100 µM throughout.
On to `CCOC(=O)c1c2c(n(Cc3ccccc3)c1C)-c1nc[nH]c1C(=O)C2=O`, for which the GI50 was 11.8 µM in the assay with A549 NSCLC; 14.8 µM with ACHN renal; 17.8 µM in the assay with EKVX NSCLC; 3.08 µM with K-562 leukemia; 14.9 µM with LOX IMVI melanoma; 2.84 µM in the assay on MOLT-4 leukemia. Besides, the GI50 in the assay on NCI-H522 lung is 15 µM; with SF-268 CNS, 17.1 µM; with SK-MEL-2 melanoma, 17.7 µM; in the assay with SW-620 colon it was 20.5 µM. The TGI in the assay on A549 NSCLC is 25.9 µM; in the assay with ACHN renal it was 27.9 µM; with EKVX NSCLC, 32 µM; in the assay with K-562 leukemia, 19.1 µM; with LOX IMVI melanoma, 28.1 µM; in the assay on MOLT-4 leukemia, 10.3 µM. The TGI with NCI-H522 lung is 28.8 µM; with SF-268 CNS, 31.2 µM; in the assay with SK-MEL-2 melanoma, 32.2 µM; in the assay on SW-620 colon it was 41.8 µM.
Turning to `CCOC(=O)c1cc2c(OC)cc(OC)cc2oc1=O`, the TGI in the assay with A549 NSCLC, in the assay on ACHN renal, with EKVX NSCLC, in the assay with K-562 leukemia, in the assay with LOX IMVI melanoma and in the assay with MOLT-4 leukemia was greater than 100 µM each time. In addition, the TGI in the assay with NCI-H522 lung, with SF-268 CNS, in the assay with SK-MEL-2 melanoma and in the assay on SW-620 colon was greater than 100 µM throughout.
Take `Cc1cccc2c1NC(=O)[C@@H](NC(=O)[C@H](CCC(F)(F)F)[C@H](CCC(F)(F)F)C(N)=O)N=C2c1cccc(F)c1`: the GI50 is 36.6 µM with A549 NSCLC; 45.1 µM in the assay on ACHN renal; 40.5 µM in the assay with EKVX NSCLC; greater than 100 µM with K-562 leukemia; 64.8 µM in the assay on LOX IMVI melanoma; greater than 100 µM in the assay with MOLT-4 leukemia. Also, the GI50 with NCI-H522 lung was 16.6 µM; in the assay with SF-268 CNS it was 23.2 µM; in the assay on SK-MEL-2 melanoma, 41.5 µM; with SW-620 colon it was greater than 100 µM. Besides, the TGI in the assay on A549 NSCLC, in the assay on ACHN renal, in the assay with EKVX NSCLC, in the assay with K-562 leukemia, in the assay on LOX IMVI melanoma and with MOLT-4 leukemia was greater than 100 µM throughout. Moreover, the TGI is 53.7 µM in the assay with NCI-H522 lung, 70 µM in the assay on SF-268 CNS, greater than 100 µM with SK-MEL-2 melanoma and greater than 100 µM in the assay with SW-620 colon.
